Reference: patent US10285983B2, “3-(1H-pyrrolo[2,3-B]pyridin-2-yl)-1H-pyrazolo[3,4-B] pyridines and therapeutic uses thereof” (Samumed, LLC, priority 2015, dated 2019)
pEC50: −log10 of the molar value.

Columns and labels:
[1] = system: primary human mesenchymal stem cells (hMSCs); experiment: Chondrogenesis induction in hMSCs (nodule count, Rhodamine B/Nile Red); assay type: cell-based; settings: 144 h, 6 days; for EC50: concentration required to induce 50% levels of chondrogenesis vs TGF-β3, read-out: Conc (nM) of 50% TGF-β3 activity; for Emax: relative to TGF-β3 (10 ng/mL) positive control, read-out: Max. Activity as % TGF-β3 activity
Experimental: Representative compounds were screened using primary human mesenchymal stem cells (hMSCs) to determine their ability to induce chondrogenesis (process by which cartilage is developed).
Primary human mesenchymal stem cells (hMSCs) were purchased from Lonza (Walkersville, Md.) and expanded in Mesenchymal Stem Cell Growth Media (Lonza). Cells between passage 3 and 6 were used for the experiments.
Each compound was dissolved in DMSO as a 10 mM stock and used to prepare compound source plates. Serial dilution (1:3, 6-point dose-response curves from 2700 nM to 10 nM) and compound transfer was performed using the ECHO 550 (Labcyte, Sunnyvale, Calif.) into 96-well clear bottom assay plates (Greiner Bio-One) with appropriate DMSO backfill for a final DMSO concentration of 0.03%. hMSCs were plated at 20,000 cells/well in 250 μL/well Incomplete Chondrogenic Induction Medium (Lonza; DMEM, dexamethasone, ascorbate, insulin-transferrin-selenium [ITS supplement], gentamycin-amphotericin [GA-1000], sodium pyruvate, proline and L-glutamine). TGF-β3 (10 ng/mL) was used as a positive control for differentiation while negative control wells were treated with 75 nL DMSO for normalization and calculating EC50 values. Cells were incubated at 37° C. and 5% CO2 for 6 days. To image chondrogenic nodules, the cells were fixed using 4% formaldehyde (Electron Microscopy Sciences), and stained with 2 μg/mL Rhodamine B (Sigma-Aldrich) and 20 μM Nile Red (Sigma-Aldrich) [Johnson K., et. al, A Stem Cell-Based Approach to Cartilage Repair, Science, (2012), 336(6082), 717-721]. The nodules imaged (4 images per well at 4× magnification) by excitation at 531 nm and emission at 625 nm and quantified using the CellInsight CX5 (Thermo Scientific). Number of nodules in each well was normalized to the average of 3 DMSO treated wells on the same plate using Excel (Microsoft Inc.). The normalized averages (fold change over DMSO) of 3 replicate wells for each compound concentration were calculated. Due to solubility limitations of some of the compounds, curve fitting was incomplete leading to inaccurate EC50 determinations.
Using TGF-β3 as a positive control, the concentration of representative compounds required to induce 50% levels of chondrogenesis is reported. In addition, the maximum activity of each compound and the respective dose that each compound reached maximum chondrogenesis activity is reported.

[2] = system: primary human fibroblasts derived from IPF patients (LL29 cells); experiment: Inhibition of fibrotic process, αSMA staining in TGF-β1 treated LL29 fibroblasts; assay type: cell-based; settings: Fibroblast, 96 h, TGF-β1 20 ng/mL, 4 days; for pEC50: % αSMA positive cells; for inhibition at 10 µM: given for EC50 >10 μM, read-out: percent inhibition at 10 μM
Procedure, shortened: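 IPF-patient LL29 lung fibroblasts in 1% FBS medium received compound (11-point, 1:2 dilution, 0.1% DMSO) plus TGF-β1 20 ng/mL, 4 days at 37 °C. Percent αSMA-positive cells among SYTOX-negative cells quantified by immunofluorescence imaging, normalized to TGF-β1/DMSO wells. EC50 by non-linear regression on triplicates; above 10 μM, % inhibition at 10 μM given.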

| SMILES | EC50 [1] [nM] | Emax [1] [%] | pEC50 [2] | inhibition at 10 µM [2] [%] |
| --- | --- | --- | --- | --- |
| CC(C)Nc1cncc(-c2cnc3[nH]nc(-c4cc5c(-c6ccccc6F)ccnc5[nH]4)c3c2)c1 [Compound 68, 5-(3-(4-(2-Fluorophenyl)-1H-pyrrolo[2,3-b]pyridin-2-yl)-1H-pyrazolo[3,4-b]pyridin-5-yl)-N-isopropylpyridin-3-amine] | 10 | 82 | 5.07 | – |
| CN(C)Cc1cncc(-c2cnc3[nH]nc(-c4cc5c(N6CCCCC6)ccnc5[nH]4)c3c2)c1 [Compound 181, N,N-Dimethyl-1-(5-(3-(4-(piperidin-1-yl)-1H-pyrrolo[2,3-b]pyridin-2-yl)-1H-pyrazolo[3,4-b]pyridin-5-yl)pyridin-3-yl)methanamine] | – | 46 | 8.15 | – |
| Nc1cncc(-c2cnc3[nH]nc(-c4cc5c(-c6ccccc6F)ccnc5[nH]4)c3c2)c1 [Compound 59, 5-(3-(4-(2-Fluorophenyl)-1H-pyrrolo[2,3-b]pyridin-2-yl)-1H-pyrazolo[3,4-b]pyridin-5-yl)pyridin-3-amine] | – | 28 | < 5.00 | 0 |
| c1cncc(-c2cnc3[nH]nc(-c4cc5cccnc5[nH]4)c3c2)c1 [Compound 256, 5-(Pyridin-3-yl)-3-(1H-pyrrolo[2,3-b]pyridin-2-yl)-1H-pyrazolo[3,4-b]pyridine] | – | 11 | 6.28 | – |
| CN(C)c1cncc(-c2cnc3[nH]nc(-c4cc5c(-c6ccccc6F)ccnc5[nH]4)c3c2)c1 [Compound 63, 5-(3-(4-(2-Fluorophenyl)-1H-pyrrolo[2,3-b]pyridin-2-yl)-1H-pyrazolo[3,4-b]pyridin-5-yl)-N,N-dimethylpyridin-3-amine] | – | 35 | < 5.00 | 0 |
| CCCCC(=O)Nc1cncc(-c2cnc3[nH]nc(-c4cc5cccnc5[nH]4)c3c2)c1 [Compound 271, N-(5-(3-(1H-Pyrrolo[2,3-b]pyridin-2-yl)-1H-pyrazolo[3,4-b]pyridin-5-yl)pyridin-3-yl)pentanamide] | 900 | 260 | 5.27 | – |
| c1cncc(-c2ccnc3[nH]c(-c4n[nH]c5ncc(-c6cncc(CN7CCCCC7)c6)cc45)cc23)c1 [Compound 99, 5-(5-(Piperidin-1-ylmethyl)pyridin-3-yl)-3-(4-(pyridin-3-yl)-1H-pyrrolo[2,3-b]pyridin-2-yl)-1H-pyrazolo[3,4-b]pyridine] | – | 44 | < 5.00 | 73.8 |
| CC(C)(C)CC(=O)Nc1cncc(-c2cnc3[nH]nc(-c4cc5c(-c6ccncc6)ccnc5[nH]4)c3c2)c1 [Compound 128, 3,3-Dimethyl-N-(5-(3-(4-(pyridin-4-yl)-1H-pyrrolo[2,3-b]pyridin-2-yl)-1H-pyrazolo[3,4-b]pyridin-5-yl)pyridin-3-yl)butanamide] | 300 | 79 | < 5.00 | 0 |
| CN(C)Cc1cncc(-c2cnc3[nH]nc(-c4cc5c(-c6cccnc6)ccnc5[nH]4)c3c2)c1 [Compound 97, N,N-Dimethyl-1-(5-(3-(4-(pyridin-3-yl)-1H-pyrrolo[2,3-b]pyridin-2-yl)-1H-pyrazolo[3,4-b]pyridin-5-yl)pyridin-3-yl)methanamine] | – | 49 | < 5.00 | 0 |
| CN(C)Cc1cncc(-c2cnc3[nH]nc(-c4cc5c(-c6cccc(F)c6)ccnc5[nH]4)c3c2)c1 [Compound 13, 1-(5-(3-(4-(3-Fluorophenyl)-1H-pyrrolo[2,3-b]pyridin-2-yl)-1H-pyrazolo [3,4-b]pyridin-5-yl)pyridin-3-yl)-N,N-dimethylmethanamine] | 100 | 102 | < 5.00 | 5.2 |
| O=C(Nc1cncc(-c2cnc3[nH]nc(-c4cc5cccnc5[nH]4)c3c2)c1)C1CCCCC1 [Compound 275, N-(5-(3-(1H-Pyrrolo[2,3-b]pyridin-2-yl)-1H-pyrazolo[3,4-b]pyridin-5-yl)pyridin-3-yl)cyclohexanecarboxamide] | – | 28 | 5.81 | – |
| O=C(CC1CCNCC1)Nc1cncc(-c2cnc3[nH]nc(-c4cc5c(-c6ccncc6)ccnc5[nH]4)c3c2)c1 [Compound 577] | – | 27 | 5.85 | – |
| CCC(=O)Nc1cncc(-c2cnc3[nH]nc(-c4cc5c(N6CCCCC6)ccnc5[nH]4)c3c2)c1 [Compound 169, N-(5-(3-(4-(Piperidin-1-yl)-1H-pyrrolo[2,3-b]pyridin-2-yl)-1H-pyrazolo[3,4-b]pyridin-5-yl)pyridin-3-yl)propionamide] | 900 | 183 | 5.53 | – |
| CC(C)CC(=O)Nc1cncc(-c2cnc3[nH]nc(-c4cc5c(-c6cccnc6)ccnc5[nH]4)c3c2)c1 [Compound 86, 3-Methyl-N-(5-(3-(4-(pyridin-3-yl)-1H-pyrrolo[2,3-b]pyridin-2-yl)-1H-pyrazolo[3,4-b]pyridin-5-yl)pyridin-3-yl)butanamide] | – | 44 | < 5.00 | 0 |
| Cn1cc(-c2cnc3[nH]nc(-c4cc5cccnc5[nH]4)c3c2)cn1 [Compound 652, 5-(1-Methyl-1H-pyrazol-4-yl)-3-(1H-pyrrolo[2,3-b]pyridin-2-yl)-1H-pyrazolo[3,4-b]pyridine] | 300 | 52 | 6.64 | – |
| Nc1cncc(-c2cnc3[nH]nc(-c4cc5c(-c6ccncc6)ccnc5[nH]4)c3c2)c1 [Compound 115, 5-(3-(4-(Pyridin-4-yl)-1H-pyrrolo[2,3-b]pyridin-2-yl)-1H-pyrazolo[3,4-b]pyridin-5-yl)pyridin-3-amine] | – | 12 | 5.23 | – |
| O=C(Nc1cncc(-c2cnc3[nH]nc(-c4cc5cccnc5[nH]4)c3c2)c1)c1ccccc1 [Compound 263, N-(5-(3-(1H-Pyrrolo[2,3-b]pyridin-2-yl)-1H-pyrazolo[3,4-b]pyridin-5-yl)pyridin-3-yl)benzamide] | – | 22 | 6.44 | – |
| O=C(Nc1cncc(-c2cnc3[nH]nc(-c4cc5c(-c6ccccc6F)ccnc5[nH]4)c3c2)c1)C1CCCC1 [Compound 78, N-(5-(3-(4-(2-Fluorophenyl)-1H-pyrrolo[2,3-b]pyridin-2-yl)-1H-pyrazolo [3,4-b]pyridin-5-yl)pyridin-3-yl)cyclopentanecarboxamide] | – | – | 5.15 | – |
| Fc1cccc(-c2ccnc3[nH]c(-c4n[nH]c5ncc(-c6ccncc6)cc45)cc23)c1 [Compound 18, 3-(4-(3-Fluorophenyl)-1H-pyrrolo[2,3-b]pyridin-2-yl)-5-(pyridin-4-yl)-1H-pyrazolo[3,4-b]pyridine] | – | – | 5.84 | – |
| CN(C)c1cncc(-c2cnc3[nH]nc(-c4cc5c(-c6cccs6)ccnc5[nH]4)c3c2)c1 [Compound 343, N,N-Dimethyl-5-(3-(4-(thiophen-2-yl)-1H-pyrrolo[2,3-b]pyridin-2-yl)-1H-pyrazolo[3,4-b]pyridin-5-yl)pyridin-3-amine] | – | – | 5.76 | – |
| Fc1cccc(-c2ccnc3[nH]c(-c4n[nH]c5ncc(-c6cncc(OCc7ccccc7)c6)cc45)cc23)c1 [Compound 518, 5-(5-(Benzyloxy)pyridin-3-yl)-3-(4-(3-fluorophenyl)-1H-pyrrolo[2,3-b]pyridin-2-yl)-1H-pyrazolo[3,4-b]pyridine] | – | – | < 5.00 | 0 |
| Oc1cncc(-c2cnc3[nH]nc(-c4cc5c(-c6ccc(F)cc6)ccnc5[nH]4)c3c2)c1 [Compound 533, 5-(3-(4-(4-Fluorophenyl)-1H-pyrrolo[2,3-b]pyridin-2-yl)-1H-pyrazolo[3,4-b]pyridin-5-yl)pyridin-3-ol] | – | – | 5.17 | – |
| CN(C)CCOc1cncc(-c2cnc3[nH]nc(-c4cc5c(-c6cccnc6)ccnc5[nH]4)c3c2)c1 [Compound 563, N,N-dimethyl-2-((5-(3-(4-(pyridin-3-yl)-1H-pyrrolo[2,3-b]pyridin-2-yl)-1H-pyrazolo[3,4-b]pyridin-5-yl)pyridin-3-yl)oxy)ethan-1-amine] | – | – | 5.61 | – |
| c1cnc2[nH]c(-c3n[nH]c4ncc(-c5ccncc5)cc34)cc2c1 [Compound 270, 5-(Pyridin-4-yl)-3-(1H-pyrrolo[2,3-b]pyridin-2-yl)-1H-pyrazolo[3,4-b]pyridine] | – | – | < 5.00 | 55.6 |
